Assay results taken from US8431706B2, “1,2,3,4-tetrahydroqinoline derivative useful for the treatment of diabetes” (Eli Lilly and Company, priority 2011, dated 2013).

Tests used:
PPARδ = target: T1, PPARδ (Homo sapiens, UniProt Q03181); assay: PPARδ binding assay (SPA)
T1 construct: made in house; host or cells: HEK293 (cell lysates)
T1 sequence (Q03181 1-441): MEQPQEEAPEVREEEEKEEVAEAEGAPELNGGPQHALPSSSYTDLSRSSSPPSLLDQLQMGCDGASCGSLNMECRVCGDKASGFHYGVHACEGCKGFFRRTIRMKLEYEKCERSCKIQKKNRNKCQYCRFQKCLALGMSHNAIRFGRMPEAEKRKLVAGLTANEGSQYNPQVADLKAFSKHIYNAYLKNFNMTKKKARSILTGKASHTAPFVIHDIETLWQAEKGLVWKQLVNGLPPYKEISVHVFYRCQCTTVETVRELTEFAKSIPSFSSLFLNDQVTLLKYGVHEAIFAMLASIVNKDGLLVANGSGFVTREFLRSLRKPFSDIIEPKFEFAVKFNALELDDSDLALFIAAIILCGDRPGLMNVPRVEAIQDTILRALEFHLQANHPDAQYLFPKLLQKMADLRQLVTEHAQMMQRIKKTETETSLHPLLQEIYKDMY
T1 sequence (P19793 1-462 partner): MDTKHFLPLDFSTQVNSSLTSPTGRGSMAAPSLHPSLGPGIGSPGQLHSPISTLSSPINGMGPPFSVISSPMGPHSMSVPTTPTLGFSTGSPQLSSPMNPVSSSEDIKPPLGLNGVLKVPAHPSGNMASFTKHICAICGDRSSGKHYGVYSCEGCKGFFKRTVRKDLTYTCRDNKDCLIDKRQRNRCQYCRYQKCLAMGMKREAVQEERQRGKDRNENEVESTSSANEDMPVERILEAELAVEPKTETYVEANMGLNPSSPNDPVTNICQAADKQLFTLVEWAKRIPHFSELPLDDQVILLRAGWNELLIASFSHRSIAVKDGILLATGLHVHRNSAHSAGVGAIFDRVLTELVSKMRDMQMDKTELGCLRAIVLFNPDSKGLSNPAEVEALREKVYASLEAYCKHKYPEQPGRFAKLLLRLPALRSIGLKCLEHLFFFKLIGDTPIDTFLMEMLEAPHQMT
Method: (§1) Because GPR40 is known to be activated by ligands to PPARγ, the exemplified compound is examined in PPARα, PPARδ, and PPARγ binding and functional assays to determine the selectivity of the compound of Example 1 for GPR40.
(§2) Binding affinities of the compound for the PPAR α, δ, and γ receptors are assessed using Scintillation Proximity Assay (SPA) technology. Biotinylated oligonucleotide Direct Repeat 2 (DR2) is used for binding the receptors to Yttrium silicate streptavidin-coated SPA beads. PPAR α, δ, γ and retinoid X receptor (RXR) α are over expressed in HEK293 cells, and cell lysates containing the specific receptors are used in the individual assays. The DR2 is attached to the SPA beads over a 30 minute period in a binding buffer containing 10 mM HEPES pH 7.8, 80 mM KCl, 0.5 mM MgCl2, 1 mM DTT, 0.5% 3[(3-cholamidopropyl)dimethylammonio]-propanesulfonic acid (CHAPS), and 4.4% bovine serum. […] Non-specific binding is determined in the presence of 10,000 nM of the unlabeled PPAR α/δ dual agonist reference compound for the alpha and delta receptor assays and the PPARγ agonist reference compound for the gamma receptor assay. The binding reaction (100 μl per well in a 96 well [Costar 3632] plate) is incubated for 10 h and counted disintegration per minutes (dpm) on a Wallac Microbeta. Receptor binding affinity (IC50) for the compound is determined by fitting an 11 point concentration-response curve with a 4-parameter logistic equation. Ki is determined from the IC50 using the Cheng-Prussoff equation and Kd determined by saturation binding. […]

PPARγ = target: T2, PPARγ (Homo sapiens, UniProt P37231); assay: PPARγ binding assay (SPA); parameters: made in house; host or cells: HEK293 (cell lysates)
T2 sequence (P37231 1-505): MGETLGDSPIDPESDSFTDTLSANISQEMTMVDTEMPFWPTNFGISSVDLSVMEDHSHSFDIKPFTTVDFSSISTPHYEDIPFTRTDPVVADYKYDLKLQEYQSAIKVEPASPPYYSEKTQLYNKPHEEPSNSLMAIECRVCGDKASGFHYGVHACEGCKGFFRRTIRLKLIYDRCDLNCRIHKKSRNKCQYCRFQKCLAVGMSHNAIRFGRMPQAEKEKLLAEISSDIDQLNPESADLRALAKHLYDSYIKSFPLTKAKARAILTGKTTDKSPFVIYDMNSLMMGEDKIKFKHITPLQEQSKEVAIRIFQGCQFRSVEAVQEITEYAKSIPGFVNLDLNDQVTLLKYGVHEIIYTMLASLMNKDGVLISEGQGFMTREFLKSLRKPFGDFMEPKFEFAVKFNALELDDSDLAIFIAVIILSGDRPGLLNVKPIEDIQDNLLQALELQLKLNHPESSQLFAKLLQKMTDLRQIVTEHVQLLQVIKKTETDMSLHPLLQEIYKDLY
T2 sequence (P19793 1-462 partner): T1 sequence (P19793 1-462 partner)
Method: as §1, §2

[1] = tested up to 30 μM, read-out: relative IC50
[2] = with 10 μM concentrations of test compound

- binding (PPARδ; concentrations up to 10 μM): no binding is detected
- IC50 (PPARδ; [1]): > 10 µM
- PPAR binding values (PPARδ; [2]): greater than 1000 nM
- binding (PPARγ; concentrations up to 10 μM): no binding is detected
- IC50 (PPARγ; [1]): > 10 µM
- PPAR binding values (PPARγ; [2]): greater than 1000 nM
Compound: CC#C[C@@H](CC(=O)O)c1ccc(OCc2ccc(CN3CCCc4cccc(OC)c43)s2)cc1 [Example 1, (3S)-3-[4-[[5-[(8-Methoxy-3,4-dihydro-2H-quinolin-1-yl)methyl]-2-thienyl]methoxy]phenyl]hex-4-ynoic acid]
